By Ki is commonly meant a measure of affinity in units of concentration, obtained from inhibition or displacement.

Data set [1] concerns the target central benzodiazepine receptor (Rattus norvegicus, UniProt P18508+P62813). Briefly: [3H]-FNZ binding to crude synaptosomal membranes from rat CNS regions. The arrangement: washed crude synaptosomal membranes from rat cerebral cortex; from tissue; host or cells: Wistar rat cerebral cortex, cerebellum, hippocampus, striatum, spinal cord (crude synaptosomal membranes); species or system rat (Wistar). To be noted: Ki, [3H]-FNZ binding, rat cerebellum. The protocol:
Adult male Wistar rats weighing 250 g were used for biochemical experiments. Adult male Swiss male weighing 25-30 g were used for pharmacological assays except for inhibitory avoidance and tail flick tests were done in rats. Animals were housed in a controlled environment, with free access to food and water and maintained on a 12 h/12 h day/night cycle.
Displacement curves were performed using [^3 ]-FNZ or [^3 H]-zolpidem ([^3 H]-ZOLP) as radioligands in washed crude synaptosomal membranes from rat cerebral cortex, cerebellum, hippocampus, striatum or spinal cord. Membrane preparations were carried out according to Medina et al. (1990). Briefly, brains were rapidly dissected out on ice and the different structures were homogenized in 10 volumes of 0.32 M sucrose and centrifuged at 900×g for 10 min. […]
For [^3 H]-FNZ (84 Ci/mmol, NEN) displacement curves, different concentrations of DNF (0.3 nM to 1 μM) were added to 0.3 mg membrane protein suspended in 1 ml of 25 mM Tris HCl buffer in presence of 0.6 nM of the radioligand. […] Nonspecific binding (<5%) was determined in parallel incubations with 10 μM FNZ (Hoffmann-La Roche). […] The assays were determined by filtration under vacuum through Whatman GF/A glass fiber filters, and two washes with 3 ml each of incubation medium. Filters were dried and counted after the addition of 5 ml 2,5-diphenyl-oxazole (PPO)-xylene as scintillation fluid.

Data set [2] addresses central benzodiazepine receptors. Briefly: Autoradiographic [3H]-FNZ displacement on rat brain sections. The data set is classed as binding, rat (Wistar). To be noted: for Ki: n=3, read-out: Ki, [3H]-FNZ binding, autoradiography. The protocol:
Wistar rats were decapitated and brains rapidly removed. Sagittal sections (15 μm in thickness) were prepared at -20° C. using a microtome-cryostat. The tissue slices were kept frozen at -70° C. until used. For DNF displacement curves to [^3 H]--FNZ binding (0.65 nM), tissue sections were incubated for 60 min at 4° C. in 25 mM Tris HCl buffer, pH 7.4, in presence of different concentrations of DNF (1-600 nM). For non-specific binding we used 10 μM FNZ. The incubation was terminated by rinsing the sections for two min in cold buffer. Sections were briefly dipped in cold distilled water and dried rapidly under a stream of cold air (Niddam et al., 1987).
Autoradiograms were generated by apposing the slide-mounted tissue section to tritium-sensitive film (Hyperfilm Amersham) in a light-proof X-ray cassette at 4° C. for two weeks.
The optical densities from different brain regions were converted first to radioactive units and then to fmol/mm^2 using the [^3 H] standards on the film with the aid of a computerized image densitometric analysis system (MCID 4.02). The values were normalized and the Ki values were determined using a computerized program (Graph-Pad Prism) Bernabeu et al., 1995; Cammarota et al., 1995).

A further data set deals with GABAλ receptors. The data set can be described thus: [3H]-muscimol binding. To be noted: 20 μM; data not shown. On the procedure: Additional binding studies were performed as described elsewhere: [^3 ]-prazosin binding for α1 adrenergic receptors (Medina et al., 1984), [^3 H]-dihidroalprenolol binding for β adrenergic receptors (Medina et al. 1984), [^3 H]-quinuclinidyl benzylate binding for muscarinic cholinergic receptors (Jerusalinksy et al., 1983), [^3 H]-muscimol binding for GABAλ receptors (Medina et al., 1983) and [^3 H]-8-Hydroxydipropylaminotetralin ([^3 H]--OH--DPAT) binding for serotonin (5-HTlλ) receptors (Nenonene et al., 1984).

For data set [3], the target named is central benzodiazepine receptors (BDZ-Rs). Briefly: 3H-FNZ binding to rat brain synaptosomal membranes (Section 3). The settings on record: rat cerebral cortex; read-out: Ki, 3H-FNZ binding. On the procedure: In brief, for each assay, triplicate samples of the membranes, containing 0.2 to 0.4 mg protein were suspended in a final volume of 1 mL of 0.25 mM Tris--HCl buffer, pH 7.3. The incubation was carried out at 4° C. for 60 min with 0.6 nM ^3 H--FNZ. to study the binding saturation, a range of 0.3 to 10 nM ^3 H--FNZ was used. […] The assays were terminated by filtration under vacuum through Whatman GF/A glass-fiber filters, and three washes with 3 mL each of incubation medium. Filters were dried and counted after the addition of 5 mL of 2,5-diphenyloxazole/xylene as scintillation fluid.
The binding of ^3 H--FNZ was carried out as for (i) above.

The test system of another data set is rats. Briefly: Inhibitory avoidance test in rats. The format is in vivo, rat. On the procedure:
This test was performed according to Izquierdo et al., (1990). The training apparatus was a 50×25×25 cm acrylic box with a frontal glass panel and a floor made of parallel 1 mm caliber bronze bars spaced […] apart. A 5 cm high, 7 cm wide formica platform was placed on the loft extreme of the box. Rats were placed on the platform and their latency to step-down placing their four paws on the grid was measured. On stepping-down they received a 0.35 mA, 2 s scrambled footshock and were withdrawn from the box (training session). The test session was carried out 20 h later and was similar to the training session in all respects except that the footshock was omitted. Test step-down latency (to a ceiling of 180 s) was taken as a measure of retention of inhibitory avoidance (Izquierdo et al., 1990).

The subject of another data set is mice. The data set can be described thus: Sodium thiopental-induced sleeping time. The format is in vivo. To be noted: for Sleeping Time / Latency: median (interquartile range); for Sleeping Time: VEH 190; for Latency: VEH 233. The protocol: (§1) Sodium thiopental (Abbott) (22 mg/kg) was i.p. injected 15 min after vehicle or DNF. The disappearance and reappearance of the righting reflex were considered indications of latency and duration of sleep, respectively (Anca et al., 1993).
(§2) Mice were injected with sodium thiopental (TP, 22 mg/kg i.p.) 15 min after vehicle (VEH) or 6,3'-dinitroflavone (DNF). The ceiling of sleeping time was 1800 s. Data are expressed in medians (interquartile range). ^3 number of animals per group.

A short description of data set [4]: Sodium thiopental-induced sleeping time. The data set is classed as in vivo, mice. The settings on record: mouse, in vivo; thiopental sleep, locomotor activity and holeboard together; read-out: doses with slight depressant action relative to anxiolytic doses. On the procedure: as §1, §2

Molecules are shown by their SMILES. Where “and” joins values, the source holds several entries; their conditions need not be identical. Equal entries are not always repeated. Where two headings read alike, the source gives them in different places.

Chain of central benzodiazepine receptor (P62813 28-455): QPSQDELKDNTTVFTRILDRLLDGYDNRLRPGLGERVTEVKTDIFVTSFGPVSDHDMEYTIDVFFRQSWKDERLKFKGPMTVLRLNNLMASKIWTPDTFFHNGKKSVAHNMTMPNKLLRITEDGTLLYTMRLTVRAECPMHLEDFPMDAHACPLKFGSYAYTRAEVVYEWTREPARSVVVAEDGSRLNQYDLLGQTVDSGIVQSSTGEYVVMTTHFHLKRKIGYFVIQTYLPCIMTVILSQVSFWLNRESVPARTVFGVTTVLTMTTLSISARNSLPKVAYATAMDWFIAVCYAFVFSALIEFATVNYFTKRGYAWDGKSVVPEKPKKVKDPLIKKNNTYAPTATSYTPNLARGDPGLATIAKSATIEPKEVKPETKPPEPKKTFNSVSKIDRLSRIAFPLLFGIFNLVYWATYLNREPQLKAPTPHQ
Chain of central benzodiazepine receptor (P18508 39-466): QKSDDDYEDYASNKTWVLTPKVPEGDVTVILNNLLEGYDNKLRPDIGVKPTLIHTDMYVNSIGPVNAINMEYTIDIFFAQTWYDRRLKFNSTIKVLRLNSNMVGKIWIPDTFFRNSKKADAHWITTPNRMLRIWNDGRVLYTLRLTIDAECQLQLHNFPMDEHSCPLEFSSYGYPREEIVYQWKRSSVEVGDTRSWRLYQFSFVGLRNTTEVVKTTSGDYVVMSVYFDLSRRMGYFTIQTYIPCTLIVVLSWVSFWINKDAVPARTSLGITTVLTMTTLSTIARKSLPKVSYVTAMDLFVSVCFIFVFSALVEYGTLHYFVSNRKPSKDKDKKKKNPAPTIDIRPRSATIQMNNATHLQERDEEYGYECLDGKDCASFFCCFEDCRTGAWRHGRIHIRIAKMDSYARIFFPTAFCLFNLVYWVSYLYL
Chain of central benzodiazepine receptor (P63138 26-474 partner): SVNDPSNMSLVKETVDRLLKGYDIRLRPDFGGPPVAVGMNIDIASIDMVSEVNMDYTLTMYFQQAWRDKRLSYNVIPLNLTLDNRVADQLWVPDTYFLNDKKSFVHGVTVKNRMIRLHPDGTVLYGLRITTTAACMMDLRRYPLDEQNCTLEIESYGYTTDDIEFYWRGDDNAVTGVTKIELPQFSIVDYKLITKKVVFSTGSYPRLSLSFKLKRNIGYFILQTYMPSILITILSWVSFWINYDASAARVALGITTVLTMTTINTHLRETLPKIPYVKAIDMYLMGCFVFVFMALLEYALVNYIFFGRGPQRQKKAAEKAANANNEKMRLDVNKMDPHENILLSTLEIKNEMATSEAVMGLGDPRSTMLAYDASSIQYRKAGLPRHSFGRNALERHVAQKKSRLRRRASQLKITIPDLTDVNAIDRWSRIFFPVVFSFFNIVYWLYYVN

Turning to `O=c1cc(-c2cccc([N+](=O)[O-])c2)oc2ccc([N+](=O)[O-])cc12` [Compound (II), 6,3'-dinitroflavone], the Ki in data set [1] was 17 nM and 17.2 nM; in data set [2] (dentate gyrus), 82.2 ± 7.6 nM; in data set [2] (parietal cortex), 30.1 ± 2.6 nM; in data set [2] (striatum) it was 53.7 ± 7.3 nM; in data set [3], 20 nM. Besides, the “potency to displace [3H]-FNZ, cerebellum vs dentate gyrus” value in data set [2] (ratio) is recorded as 5 times. Also, the “displacement of [3H]-muscimol binding” value with GABAλ receptors is given as “did not displace”. Also, in the data set on rats (rats, i.p., 100 μg/kg, pre or posttraining), the “test session performance of inhibitory avoidance” value is given as “no effect”. For the same compound, in the data set with rats (up to 10 mg/kg as worded), the amnesic effects entry is given as “did not evidence anticonvulsant, myorelaxant, amnesic”. Besides, the “latency or sleeping time (in words)” value in the data set on mice (1 mg/kg) is “did not change the latency or the sleeping time”. Further, the “Sleeping Time” value with mice (DNF 1 mg/kg + TP 22 mg/kg, n=7) is reported as 207 (20/600) s; in the data set with mice (DNF 3 mg/kg + TP 22 mg/kg, n=12, p<0.05) it was 1277 (248/1800) s. The Latency in the data set with mice (DNF 1 mg/kg + TP 22 mg/kg, n=7) was 230 (164/300) s; with mice (DNF 3 mg/kg + TP 22 mg/kg, n=12), 237 (202/293) s. Also, the “latency to sleep (in words)” value with mice (i.p., 3 mg/kg) was “No changes were observed in latency to sleep”. Further, the “sleeping time (in words)” value in the data set on mice (i.p., 3 mg/kg, p<0.05) is given as “augmented the sleeping time”. Further, the selectivity ratio in data set [4] lay within 100 to 300.
